Measurements published in patent US20240166646A1, “1H-PYRROLO[2,3-B]PYRIDINE DERIVATIVES AS BCL-2 INHIBITORS FOR THE TREATMENT OF NEOPLASTIC AND AUTOIMMUNE DISEASES” (Newave Pharmaceutical Inc., priority 2020, published 2024).
Structures can show the parent of a compound that is named as a salt.

The compounds below were run against Bcl-2 (Homo sapiens (Human), UniProt P10415) (assay: Bcl-2 competition binding (fluorescence polarization) assay). Conditions: fluorescein labeled BH3 peptide 15 nM, Bcl-2 protein 30 nM, 3 hours of incubation at room temperature.
Bcl-2, sequence (P10415 whole entry): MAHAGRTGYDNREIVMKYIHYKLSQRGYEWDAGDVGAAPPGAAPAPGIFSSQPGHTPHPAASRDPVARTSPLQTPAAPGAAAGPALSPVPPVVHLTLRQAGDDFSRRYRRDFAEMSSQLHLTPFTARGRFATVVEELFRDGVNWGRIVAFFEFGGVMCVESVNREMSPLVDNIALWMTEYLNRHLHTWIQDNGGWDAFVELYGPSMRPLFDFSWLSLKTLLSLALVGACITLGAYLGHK
Experimental: Biological Example 1: Bcl-2 Competition Binding (Fluorescence Polarization) Assay
The fluorescence-labeled 23 amino acid peptide BH3 was purchased from CalBiochem ([…]). […] This binding assay was performed in 96-well plate and with each assay contained 15 and 30 nM of labeled peptide and purified Bcl-2 protein (purchased from R&D Systems, Inc). The assay buffer contained 20 mM Hepes (pH 7.0), 50 mM KCl, 5 mM MgCl2, 20 mM Na2MoO4, 0.1 mg/mi Bovine Gamma Globulin and 0.01% NP40. Compounds were diluted in DMS0 and added to the final assay with concentration range from 20 μM to 2 nM. The polarization degree (mP) value was determined by BioTek Synergy II with background subtraction after 3 hours of incubation at room temperature. IC50 was calculated using Prism software with sigmoidal dose-response curve fitting. ABT-737 was used as reference compound. Such assays, carried out with a range of doses of test compounds, allowed the determination of an approximate IC50 value.

Row | SMILES | IC50 [nM]
1 | O=C(NS(=O)(=O)c1ccc(NCC2CCOCC2)c([N+](=O)[O-])c1)c1ccc(N2CCC3(CC2)CC(N2CCC[C@H]2c2ccccc2)C3)cc1N1c2cc3cc[nH]c3nc2O[C@@H]2COC[C@H]21 [Example 12, 2-[(11R,15S)-13,16-dioxa-2,4,10-triazatetracyclo[7.7.0.0^{3,7}.0^{11,15}]hexadeca-1(9),2,5,7-tetraen-10-yl]-N-{3-nitro-4-[(oxan-4-ylmethyl)amino]benzenesulfonyl}-4-{2-[(2S)-2-phenylpyrrolidin-1-yl]-7-azaspiro[3.5]nonan-7-yl}benzamide hydrochloride] | 0.161
2 | O=C(NS(=O)(=O)c1ccc(NCC2CCOCC2)c([N+](=O)[O-])c1)c1ccc(N2CCC3(CC2)CC(N2CCC[C@H]2c2ccccc2-c2cccnc2)C3)cc1N1c2cc3cc[nH]c3nc2O[C@@H]2COC[C@H]21 [Example 13, 2-[(11R,15S)-13,16-dioxa-2,4,10-triazatetracyclo[7.7.0.0^{3,7}.0^{11,15}]hexadeca-1(9),2,5,7-tetraen-10-yl]-N-{3-nitro-4-[(oxan-4-ylmethyl)amino]benzenesulfonyl}-4-{2-[(2S)-2-[2-(pyridin-3-yl)phenyl]pyrrolidin-1-yl]-7-azaspiro[3.5]nonan-7-yl}benzamide hydrochloride] | 2.42
3 | O=C(NS(=O)(=O)c1ccc(NCC2CCOCC2)c([N+](=O)[O-])c1)c1ccc(N2CCC3(CC2)CC(N2CCC[C@H]2c2ccccc2-c2ccncc2)C3)cc1N1c2cc3cc[nH]c3nc2O[C@@H]2COC[C@H]21 [Example 14, 2-[(11R,15S)-13,16-dioxa-2,4,10-triazatetracyclo[7.7.0.0^{3,7}.0^{11,15}]hexadeca-1(9),2,5,7-tetraen-10-yl]-N-{3-nitro-4-[(oxan-4-ylmethyl)amino]benzenesulfonyl}-4-{2-[(2S)-2-[2-(pyridin-4-yl)phenyl]pyrrolidin-1-yl]-7-azaspiro[3.5]nonan-7-yl}benzamide hydrochloride] | 0.74
4 | O=C(NS(=O)(=O)c1ccc(NCC2CCOCC2)c([N+](=O)[O-])c1)c1ccc(N2CCC3(CC2)CC(N2CCC[C@H]2c2ccccc2C(F)(F)F)C3)cc1N1c2cc3cc[nH]c3nc2O[C@@H]2COC[C@H]21 [Example 15, 2-[(11R,15S)-13,16-dioxa-2,4,10-triazatetracyclo[7.7.0.0^{3,7}.0^{11,15}]hexadeca-1(9),2,5,7-tetraen-10-yl]-N-{3-nitro-4-[(oxan-4-ylmethyl)amino]benzenesulfonyl}-4-{2-[(2S)-2-[2-(trifluoromethyl)phenyl]pyrrolidin-1-yl]-7-azaspiro[3.5]nonan-7-yl}benzamide hydrochloride] | 0.2
5 | COc1ccccc1[C@@H]1CCCN1C1CC2(CCN(c3ccc(C(=O)NS(=O)(=O)c4ccc(NCC5CCOCC5)c([N+](=O)[O-])c4)c(N4c5cc6cc[nH]c6nc5O[C@@H]5COC[C@H]54)c3)CC2)C1 [Example 16, 2-[(11R,15S)-13,16-dioxa-2,4,10-triazatetracyclo[7.7.0.0^{3,7}.0^{11,15}]hexadeca-1(9),2,5,7-tetraen-10-yl]-4-{2-[(2S)-2-(2-methoxyphenyl)pyrrolidin-1-yl]-7-azaspiro[3.5]nonan-7-yl}-N-{3-nitro-4-[(oxan-4-ylmethyl)amino]benzenesulfonyl}benzamide] | 0.09
6 | O=C(NS(=O)(=O)c1ccc(NCC2CCOCC2)c([N+](=O)[O-])c1)c1ccc(N2CCC3(CC2)CC(N2CCC[C@H]2c2ccccc2-c2ccccn2)C3)cc1N1c2cc3cc[nH]c3nc2O[C@@H]2COC[C@H]21 [Example 18, 2-[(11R,15S)-13,16-dioxa-2,4,10-triazatetracyclo[7.7.0.0^{3,7}.0^{11,15}]hexadeca-1(9),2,5,7-tetraen-10-yl]-N-{3-nitro-4-[(oxan-4-ylmethyl)amino]benzenesulfonyl}-4-{2-[(2S)-2-[2-(pyridin-2-yl)phenyl]pyrrolidin-1-yl]-7-azaspiro[3.5]nonan-7-yl}benzamide] | 0.42
7 | CC(C)Nc1ccccc1[C@@H]1CCCN1C1CC2(CCN(c3ccc(C(=O)NS(=O)(=O)c4ccc(NCC5CCOCC5)c([N+](=O)[O-])c4)c(N4c5cc6cc[nH]c6nc5O[C@@H]5COC[C@H]54)c3)CC2)C1 [Example 21, 2-[(11R,15S)-13,16-dioxa-2,4,10-triazatetracyclo[7.7.0.0^{3,7}.0^{11,15}]hexadeca-1(9),2,5,7-tetraen-10-yl]-4-{2-[(2S)-2-[2-(isopropylamino)phenyl]pyrrolidin-1-yl]-7-azaspiro[3.5]nonan-7-yl}-N-{3-nitro-4-[(oxan-4-ylmethyl)amino]benzenesulfonyl}benzamide hydrochloride] | 0.239
8 | O=C(NS(=O)(=O)c1ccc(NCC2CCOCC2)c([N+](=O)[O-])c1)c1ccc(N2CCC3(CC2)CC(N2CCC[C@H]2c2ccccc2C2CCC2)C3)cc1N1c2cc3cc[nH]c3nc2O[C@@H]2COC[C@H]21 [Example 22, 4-{2-[(2S)-2-(2-cyclobutylphenyl)pyrrolidin-1-yl]-7-azaspiro[3.5]nonan-7-yl}-2-[(11R,15S)-13,16-dioxa-2,4,10-triazatetracyclo[7.7.0.0^{3,7}.0^{11,15}]hexadeca-1(9),2,5,7-tetraen-10-yl]-N-{3-nitro-4-[(oxan-4-ylmethyl)amino]benzenesulfonyl}benzamide] | 0.1
9 | O=C(NS(=O)(=O)c1ccc(NCC2CCOCC2)c([N+](=O)[O-])c1)c1ccc(N2CCC3(CC2)CC(N2CCC[C@H]2c2ccccc2Cl)C3)cc1N1c2cc3cc[nH]c3nc2O[C@@H]2COC[C@H]21 [Example 23, 4-{2-[(2S)-2-(2-chlorophenyl)pyrrolidin-1-yl]-7-azaspiro[3.5]nonan-7-yl}-2-[(11R,15S)-13,16-dioxa-2,4,10-triazatetracyclo[7.7.0.0^{3,7}.0^{11,15}]hexadeca-1(9),2,5,7-tetraen-10-yl]-N-{3-nitro-4-[(oxan-4-ylmethyl)amino]benzenesulfonyl}benzamide hydrochloride] | 0.587
10 | O=C(NS(=O)(=O)c1ccc(NCC2CCOCC2)c([N+](=O)[O-])c1)c1ccc(N2CCC3(CC2)CC(N2CCC[C@H]2c2ccccc2F)C3)cc1N1c2cc3cc[nH]c3nc2O[C@@H]2COC[C@H]21 [Example 24, 2-[(11R,15S)-13,16-dioxa-2,4,10-triazatetracyclo[7.7.0.0^{3,7}.0^{11,15}]hexadeca-1(9),2,5,7-tetraen-10-yl]-4-{2-[(2S)-2-(2-fluorophenyl)pyrrolidin-1-yl]-7-azaspiro[3.5]nonan-7-yl}-N-{3-nitro-4-[(oxan-4-ylmethyl)amino]benzenesulfonyl}benzamide hydrochloride] | 0.42
11 | CS(=O)(=O)Nc1ccccc1[C@@H]1CCCN1C1CC2(CCN(c3ccc(C(=O)NS(=O)(=O)c4ccc(NCC5CCOCC5)c([N+](=O)[O-])c4)c(N4c5cc6cc[nH]c6nc5O[C@@H]5COC[C@H]54)c3)CC2)C1 [Example 25, 2-[(11R,15S)-13,16-dioxa-2,4,10-triazatetracyclo[7.7.0.0^{3,7}.0^{11,15}]hexadeca-1(9),2,5,7-tetraen-10-yl]-4-{2-[(2S)-2-(2-methanesulfonamidophenyl)pyrrolidin-1-yl]-7-azaspiro[3.5]nonan-7-yl}-N-{3-nitro-4-[(oxan-4-ylmethyl)amino]benzenesulfonyl}benzamide] | 14.8
